Measured values reported in patent US20200038514A1, “FOLATE CONJUGATE FOR USE IN TARGETING TUMOR ASSOCIATED MACROPHAGES” (ENDOCYTE, INC., priority 2016, published 2020).

Experiments:
IGROV1 cells = assay: Clonogenic assay, IGROV1; assay type: cell-based, human; details: 2 hour exposure, 9-day chase
Experimental: IGROV1 cells seeded in 6-well plates (1000 cells/well) were exposed for 2 hours to Conjugate 5 at 1, 10, and 100 nM and followed by a 9-day chase in drug-free medium. Afterwards, the cells were washed with PBS and fixed for 5 minutes in a 3:1 methanol:acetic acid solution. The cells were then stained with 0.5% crystal violet/methanol solution for 15 minutes and washed with tap water. After a drying step, the colonies were photographed and counted using the ImageJ software.
Afterwards, the cells were washed with PBS and fixed for 5 minutes in a 3:1 methanol:acetic acid solution. The cells were then stained with 0.5% crystal violet/methanol solution for 15 minutes and washed with tap water. After a drying step, the colonies were photographed and counted using the ImageJ software.

[1] = system: 4T1-C12 tumor (FRα-positive); assay: Single-agent activity in vivo, 4T1-C12 mammary tumors; set-up: species or system mice; details: 0.2 μmol/kg i.v., BIW×4 doses
Excerpt: Female Balb/c mice (4T1p, 4T1-C12) were purchased from Envigo (Indianapolis, Ind.) and used when they reached 6-8 weeks of age. The mice were fed a folate-deficient diet (TestDiet, St. Louis, Mo.) on the day of arrival.
Solid tumors in Balb/c mice were generated by subcutaneous implantation of cultured cells at 5×10^5 (4T1p) and 2×10^6 (4T1-C12) per animal in the mammary region.
Starting on day 0, mice with mammary 4T1p (˜78.3±12.1 mm^3) and 4T1-C12 (˜70.1±14.1 mm^3) were scheduled to receive Conjugate 5 at 200 nmol/kg, biweekly for two weeks. 4T1p tumor bearing mice received a total of 3 doses only and 4T1-C12 tumor bearing mice received a total of 4 doses as planned. Mice were weighed and measured for tumor size 3 times a week. The tumor volumes were calculated by the following formula: V=0.5×a×b^2, where a is the longest axis across the tumor, and b is the shorter axis perpendicular to a. The animals were euthanized when the tumor volume reached ˜1500 mm^3. Mice were also monitored closely for the evidence of toxicity such as respiratory distress, mobility, weight loss, diarrhea, hunched posture, and failure to eat. The last Conjugate 5 dose in the 4T1p tumor-bearing mice was skipped due to weight loss.

ST070 ovarian PDX tumors = assay: In vivo activity against ovarian tumors; set-up: species or system mice
Experimental: Mice were maintained and tumor volumes were measures according to Method 3.
Primary human Ovarian model ST070 fragments (2-4 mm in diameter) were inoculated subcutaneously at the right flank of each mouse. Mice were randomized into experimental groups of 7 mice each and test articles were injected through the lateral tail vein under sterile conditions in a volume of […] of phosphate-buffered saline (PBS).

ID8-C115 ascites tumors = assay: Conjugate 5 versus EC1456 against various stages of ID8-C115 ascites tumors, survival; assay type: in vivo, mice
Excerpt: Mouse ascites tumors were generated by intra-peritoneal implantation of cultured cells at 5×10^6 in C57BL/6 mice.
In a first experiment (P-1836), all treatment started 7 days after the tumors were implanted. The mice were intravenously dosed with Conjugate 5 at 0.1 μmol/kg twice-per-week for a total of 6 doses (BIW×3). […] In a second experiment (P-1846), Conjugate 5 treatment started 21 days after the tumors were implanted. The mice were intravenously dosed with Conjugate 5 at 0.1 μmol/kg for 3 consecutive days each week for 3 weeks (D0-2×3, 9 doses). […] In a third experiment (P-1861), Conjugate 5 treatment started 35 days after the tumors were implanted. The mice were intravenously dosed with Conjugate 5 at 0.3 μmol/kg once-a-week for 2 consecutive weeks (SIW×2, 2 doses). […] In a fourth experiment (P-1836), Conjugate 5 treatment started 43 days after the tumors were implanted. The mice were intravenously dosed with Conjugate 5 at 0.3 μmol/kg once-a-week for 2 consecutive weeks (SIW×2, 2 doses). […] All mice were weighed 3 times/week and assessed for any clinical sign of swollen bellies indicative of ascites formation and for evidence of toxicity including respiratory distress, mobility, weight loss, diarrhea, hunched posture, and failure to eat. Once the animals developed ascites, they were monitored daily and euthanized when ascites became severe (rounded and walking on tip toes).

KB tumor = assay: In vivo activity against KB tumors in mice; details: 0.5 μmol/kg once a week for two weeks
Excerpt: Treatment with 0.5 μmol/kg of Conjugate 5, once a week for two weeks also produced maximal anti-tumor activity with 100% cures. Change in weight is shown in FIG. 2B for test mice dosed at 0.5 μmol/kg Conjugate 5 SIW for two weeks (▴) compared to untreated control (▪).

[2] = system: intraperitoneal ID8-C115 tumor; assay: Conjugate 5 plus anti-CTLA-4 combination study, survival; assay type: in vivo, mice; details: Conjugate 5 i.v. 0.1 μmol/kg BIW×6 doses; EC1456 i.v. 2 μmol/kg BIW×6 doses, from day 7; anti-CTLA-4 i.p. 250 μg/dose BIW×5 doses from day 11; untreated ~46 days; 5 animals
Experimental: To test the effect of Conjugate 5 alone and in combination with anti-CTLA-4 antibody, ID8-C115 tumor cells (5×10^6 cells per animal in 1% syngeneic mouse serum/folate-deficient RPMI1640 medium) were inoculated intraperitoneally 13 days post the date of arrival and start of the folate deficient diet. […] The anti-CTLA-4 antibody dosing solution was prepared by diluting the stock solution (BioXcell, Clone UC10-4F10-11) to 1.25 mg/mL in PBS, pH 7.4. Anti-CTLA-4 (250 μg/dose) was i.p. administered BIW for a total of 5 doses starting 11 days after the tumor implant. […] Mice were weighed 3 times/week and assessed for any clinical sign of swollen bellies indicative of ascites formation and for the evidence of toxicity such as respiratory distress, mobility, weight loss, diarrhea, hunched posture, and failure to eat. Once the animals developed ascites, they were monitored daily and euthanized when ascites became severe (rounded and walking on tip toes). Healthy animals from the same cohort of mice were used as controls for normal weight gain.

C=C1C[C@H]2C=Nc3cc(OCCCCCOc4cc(N)c(C(=O)N5CC(=C)C[C@H]5C5OCCN5C(=O)OCC(C)(C)SSCCC(=O)NCCNC(=O)CCOCCOCCOCCOCCNC(=O)CCN5C(=O)CC(SC[C@H](NC(=O)[C@H](CC(=O)O)NC(=O)[C@H](CC(=O)O)NC(=O)[C@H](CCCNC(=N)N)NC(=O)[C@H](CC(=O)O)NC(=O)CC[C@H](NC(=O)c6ccc(NCc7cnc8nc(N)[nH]c(=O)c8n7)cc6)C(=O)O)C(=O)O)C5=O)cc4OC)c(OC)cc3C(=O)N2C1 (stereo partly shown) [Conjugate 5]
clonogenic activity (IGROV1 cells; 1, 10, 100 nM): potent activity at all concentrations
clonogenic activity, comparison Conjugate 5 and EC1456 (IGROV1 cells; 1, 10, 100, 1000 nM): potent activity at all concentrations tested
clonogenic anti-tumor activity in the presence of excess folic acid (IGROV1 cells; 1 and 10 nM, excess folic acid): significantly reduced
body weight [1]: significant weight loss
cure (number of mice) (ST070 ovarian PDX tumors; 0.5 μmol/kg SIW for two weeks, n=7): 7
ovarian PDX tumor size compared to untreated control (ST070 ovarian PDX tumors; Conjugate 5 0.5 μmol/kg SIW, EC1456 4.0 μmol/kg SIW, paclitaxel 15 mg/kg SIW, two weeks): decreased ovarian PDX tumor size
median survival time (ID8-C115 ascites tumors; 7-day-old tumors, Conjugate 5 0.1 mol/kg BIW×6 doses, EC1456 2 mol/kg BIW×6 doses, untreated ~46 days): ~77 days post tumor implant
toxicity observed (ID8-C115 ascites tumors; 21-day-old tumors, Conjugate 5 0.1 mol/kg D0-2×3, 9 doses, EC1456 2 μmol/kg D0-2×, 9 doses): mild ataxia
median survival time (ID8-C115 ascites tumors; 21-day-old tumors, Conjugate 5 0.1 mol/kg D0-2×3, 9 doses, EC1456 2 μmol/kg D0-2×, 9 doses (two remaining animals), untreated ~46 days): ~76 days
median survival time (ID8-C115 ascites tumors; 35-day-old tumors, Conjugate 5 0.3 μmol/kg SIW×2, 2 doses, EC1456 2 mol/kg D0-2×2, 4 doses, untreated ~42 days): ~64 days post tumor implant
median survival time (ID8-C115 ascites tumors; 43-day-old tumors, Conjugate 5 0.3 μmol/kg SIW×2, 2 doses, EC1456 2 mol/kg D0-2×1, 3 doses, untreated ~46 days): ~57 days post tumor implant
cures (KB tumor): 100%
median survival time [2]: ~77 days post tumor implant
